Measurements from US12516130B2, “Single-domain antibody for targeting prostate specific membrane antigen (PSMA)” (NATIONAL INSTITUTE FOR BIOTECHNOLOGY IN THE NEGEV LTD., priority 2019, dated 2026).

Tests used:
PC3-PIP xenografts [1] = assay: In vivo tumor growth inhibition; parameters: species or system athymic nude mice; conditions: fewer than in saline group
Experimental: PC3-PIP xenografts were grown in athymic nude mice, as described in the in vivo optical imaging section, above. When the average tumor size reached 200 mm^3, the mice were divided into three groups (controlled for average tumor size), each subjected to a different treatment: 150 μl saline (n=7), 2 mg/kg DOX (n=8), or 1.4 mg/kg (˜40 μg) NB7cysDOX (n=8). The treatment was administered to the tail vein twice a week for three consecutive weeks. At each sample point, the tumor volume was calculated (V=0.5×L×W×H), as previously described (Tomayko and Reynolds, 1989). A mouse was euthanized when tumor volume reached 1,500 mm^3 or when its physical condition deteriorated, according to the guidelines of the Committee for the Ethical Care and Use of Animals in Research at BGU. The estimated tumor volume prior to euthanasia and the rate-based T/C were determined as described previously (Aston et al., 2017).

[2] = test system: PC3-PIP and PC3-flu cells; assay: Confocal imaging of NB7cys, DOX and NB7cysDOX internalization; type: cell-based; conditions: 15 min, 1.5 μg/ml DOX or molar equivalent
PC3-PIP xenografts [3] = assay: Histology of treated tumors (IF, H&E, TUNEL); conditions: 4 d after treatment termination
Source text: Four days following the final dose of each treatment in the in vivo tumor growth inhibition assay, the mice were euthanized, and their xenografts were fixated in 4% formaldehyde and embedded in paraffin. Tumor sections (5 μm thickness) were subjected to hematoxylin and eosin (H&E) staining, TUNEL assay, and immunofluorescence (IF), as previously described (Pittala et al., 2018, Fischer et al., 2008). […] 4′,6-diamidino-2-phenylindole (DAPI) was used for nuclei staining. […] TUNEL, PI, and IF were visualized in a confocal microscope.

PC3-PIP cells [4] = assay: Mitochondrial potential assay (TMRE); type: cell-based; conditions: 24 h, 1.5 μg/ml DOX or equivalent molar amount
Experimental: PC3-PIP cells (2×10^4) were seeded on 96-well plates. […] After 24 h, tetramethylrhodamine ethyl ester (TMRE; Abcam, UK) was added according to the protocol provided by the manufacturer. Fluorescence intensity was measured at an excitation wavelength of 549 nm and an emission wavelength of 575 nm.

PC3-PIP cells [5] = assay: Cell viability assay (propidium iodide, FACS); type: cell-based; conditions: 24 h, 1.5 μg/ml DOX or equivalent molar amount
Experimental: PC3-PIP cells were grown and treated as described in the cell quantification assay section, above. The cells were harvested, incubated with 0.5 μg propidium iodide (PI; Biolegend), and their fluorescence intensity was measured in a BD C6 flow cytometer.

PC3-PIP cells [6] = assay: Cell quantification assay; type: cell-based; conditions: 24 h, 1.5 μg/ml DOX or equivalent molar amount
Experimental: PC3-PIP cells (5×10^4) were seeded in 24-well plates. […] After 24 h of treatment, the number of cells in each well was counted using the Countess II automated cell counter (Invitrogen).

COc1cccc2c1C(=O)c1c(O)c3c(c(O)c1C2=O)C[C@@](O)(C(=O)CO)C[C@@H]3O[C@H]1C[C@H](N)[C@H](O)[C@H](C)O1 [DOX, doxorubicin]
mice reaching maximal tumor size, DOX versus NB7cysDOX groups (PC3-PIP xenografts [1]): not significantly different from each other | cellular distribution in PC3-PIP and PC3-flu cells [2]: diffused spontaneously into both PC3-PIP and PC3-flu cells | H&E staining of tumors (PC3-PIP xenografts [3]): necrotic, fewer, and with large vacancies between cells | TUNEL assay of tumors (PC3-PIP xenografts [3]): significant apoptosis | mitochondrial membrane potential (TMRE signal) (PC3-PIP cells [4]): similarly reduced the mitochondrial membrane potential | PI signal (late apoptosis and necrosis) (PC3-PIP cells [5]): considerably increased the signal | number of cells versus untreated cells (PC3-PIP cells [6]): significantly reduced the number of cells in the well
